Experimental data reported in PMC3265452 (PLoS Neglected Tropical Diseases, 2012).
Where a name gives a salt, the structure may show the parent alone. Residues, ends and D or L forms follow the SMILES beside them. *: point of attachment. Cbz = O=C(OCc1ccccc1)*

The compounds below were run against AaDOP2 (Aedes aegypti, UniProt H6D5H2) (assay: AaDOP2 antagonist screen of the LOPAC1280 library (HEK-CRELuc-Aadop2 cells, luminescence)). Settings: not given.
Type: cell-based

Chain of AaDOP2 (H6D5H2 1-476): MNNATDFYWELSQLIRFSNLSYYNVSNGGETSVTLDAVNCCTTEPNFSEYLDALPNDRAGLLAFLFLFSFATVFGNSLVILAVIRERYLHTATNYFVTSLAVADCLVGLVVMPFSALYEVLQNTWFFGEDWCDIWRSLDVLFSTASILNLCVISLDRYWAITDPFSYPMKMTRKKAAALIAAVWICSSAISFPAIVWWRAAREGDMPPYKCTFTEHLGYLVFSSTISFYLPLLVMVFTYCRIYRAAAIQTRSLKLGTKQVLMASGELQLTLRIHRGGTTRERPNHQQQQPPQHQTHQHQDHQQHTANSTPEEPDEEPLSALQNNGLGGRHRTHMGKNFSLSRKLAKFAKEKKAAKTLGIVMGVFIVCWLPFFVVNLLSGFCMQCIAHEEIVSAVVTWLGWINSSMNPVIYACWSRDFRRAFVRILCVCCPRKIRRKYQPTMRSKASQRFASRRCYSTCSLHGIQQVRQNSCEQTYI

Compound | Compound effect (percent receptor signaling in presence of test compound, relative lux units relative to the SCH23390 control)
COc1cccc2c1[C@@H]1CN(CCCCn3c(=O)[nH]c4c(sc5ncc(-c6ccccc6)nc54)c3=O)C[C@@H]1CO2 [Compound 517, Fiduxosin hydrochloride] | 69
Cl.Clc1ccc(N2CCN(Cc3c[nH]c4ncccc34)CC2)cc1 [Compound 728, L-745,870 hydrochloride] | 111
Cl.c1ccc(CN2CCC3(CCCc4ccccc43)CC2)cc1 [Compound 712, L-687,384 hydrochloride] | 87
CC(CCc1ccccc1)NCC(O)c1ccc(O)c(C(N)=O)c1 (stereo not shown) [Compound 693, Labetalol hydrochloride] | 83
O=S1(=O)N(CCN2CC=C(c3c[nH]c4cc(F)ccc34)CC2)c2cccc3c2N1CCC3 [Compound 697, LY-367,265] | 29
CN1C[C@@H](NS(=O)(=O)N(C)C)C[C@@H]2c3cccc4c3c(cn4C)C[C@H]21 [Compound 827, Mesulergine hydrochloride] | 88
C[C@@H]1O[C@@H](O[C@H]2C[C@@H](O)[C@]3(CO)[C@H]4[C@H](O)C[C@]5(C)[C@@H]([C@@H]6COC(=O)C6)CC[C@]5(O)[C@@H]4CC[C@]3(O)C2)[C@H](O)[C@H](O)[C@H]1O [Compound 356, Dihydroouabain] | 56
S=C=Nc1cccc(C2(N3CCCCC3)CCCCC2)c1 [Compound 821, Metaphit methanesulfonate] | 93
CN(C)c1nc(N(C)C)nc(N(C)C)n1 [Compound 97, Altretamine] | 105
Cc1cccc(C(=O)NCN2CCN(c3ccccc3C#N)CC2)c1.O=C(O)/C=C\C(=O)O [Compound 1025, PD 168,077 maleate] | 91
CC(=O)SCC[N+](C)(C)C.[Cl-] [Compound 62, Acetylthiocholine chloride] | 122
COc1ccc(CCCOC(Cn2ccnc2)c2ccc(OC)cc2)cc1 (stereo not shown) [Compound 1110, SKF 96365] | 68
CN(C)CCCN1c2ccccc2Sc2ccc(Cl)cc21 [Compound 305, Chlorpromazine hydrochloride] | 95
Oc1ccccc1O [Compound 316, Pyrocatechol] | 101
Cc1nc2c([nH]1)c(=O)n(C)c(=O)n2Cc1ccco1 [Compound 542, Furafylline] | 120
CC(=O)Oc1ccccc1C(=O)O [Compound 60, Acetylsalicylic acid] | 87

Compound | Compound effect (percent receptor signaling in presence of test compound, relative lux units relative to the SCH23390 control)
Oligomycin A [Compound 906] | 82
O=C(O)C1CCNCC1 [Compound 679, Isonipecotic acid] | 94
NCC(O)c1ccc(O)cc1 (racemic) [Compound 894, (±)-Octopamine hydrochloride, reference compound] | 104
COc1cc(C(O)CN)ccc1O.Cl (racemic) [Compound 862, (±)-Normetanephrine hydrochloride] | 81
COc1ccc(C(=O)NCc2cccnc2)cc1C(=O)NCc1cccnc1 [Compound 981, Picotamide] | 84
C[N+]1(C)CCN(c2ccccc2)CC1.[I-] [Compound 400, 1,1-Dimethyl-4-phenyl-piperazinium iodide] | 87
O=C(O)Cc1ccccc1Nc1c(Cl)cccc1Cl [Compound 405, Diclofenac sodium] | 94
O=C(O)CCCCCCCC(=O)O [Compound 6, Azelaic acid] | 107
CC(N)Cc1c[nH]c2ccc(OCc3cccs3)cc12 (stereo not shown) [Compound 214, BW 723C86] | 92
CC(C)(Sc1ccc(CCN(CCCCC2CCCCC2)C(=O)NC2CCCCC2)cc1)C(=O)O [Compound 557, GW7647] | 50
C[N+](C)(C)CCCCCC[N+](C)(C)C.[Cl-].[Cl-] [Compound 582, Hexamethonium dichloride] | 94
CC(C)[C@H](NC(=O)OCc1ccccc1)C(=O)N[C@H](C=O)Cc1ccccc1 [Compound 793, MDL 28170] (Cbz-Val-Phe-aldehyde) | 96
COc1ccc2c(c1)c(CC(=O)O)c(C)n2C(=O)c1ccc(Cl)cc1 [Compound 654, Indomethacin] | 100
CC(C)N(CCC(C(N)=O)(c1ccccc1)c1ccccn1)C(C)C (stereo not shown) [Compound 402, Disopyramide phosphate] | 104
CNCC[C@@H](Oc1ccccc1C)c1ccccc1 [Compound 1209, Tomoxetine] | 79
CC1(C(=O)O)C2CCC(O2)C1(C)C(=O)O (stereo not shown) [Compound 304, Cantharidic Acid] | 120

Same assay, conditions: 10 µM compound, 300 nM dopamine, 2 hr; hit = compound effect <20

Compound effect (percent receptor signaling in presence of test compound, relative lux units relative to the SCH23390 control) | Compound
125% | CC(C)NCC(O)c1ccc(NS(C)(=O)=O)cc1.Cl (racemic) [Compound 1074, (±)-Sotalol hydrochloride]
146% | O=C([O-])c1cc2cc(Cc3cccnc3)ccc2o1.[Na+] [Compound 516, Furegrelate sodium]
108% | NC(=O)c1cc[n+](CC2=C(C(=O)[O-])N3C(=O)[C@@H](NC(=O)[C@@H](c4ccccc4)S(=O)(=O)[O-])[C@H]3SC2)cc1.[Na+] [Compound 306, Cefsulodin sodium salt hydrate]

Compound | Compound effect (percent receptor signaling in presence of test compound, relative lux units relative to the SCH23390 control)
C[N+]1(CCCCC[N+]2(C)CCCC2)CCCC1.O=C([O-])C(O)C(O)C(=O)O.O=C([O-])C(O)C(O)C(=O)O [Compound 937, Pentolinium di[L(+)-tartrate]] | 94%
CCCN1CCC[C@H](c2cccc(O)c2)C1.Cl [Compound 1003, R(+)-3PPP hydrochloride] | 86%
